# Measurements reported in the supplement of paper PMC10307832.
# What was measured:
# Assay in all cases: relative viability (nuclei count vs DMSO), 5 days (fraction); higher = more cells survive
# IPA-3 + Crizotinib = compound: C1=CC=C2C(=C1)C=CC(=C2SSC3=C(C=CC4=CC=CC=C43)O)O [IPA-3] + C[C@@H](Oc1cc(-c2cnn(C3CCNCC3)c2)cnc1N)c1c(Cl)ccc(F)c1Cl [Crizotinib] (partner 1 µM)
# Method in brief: (§1)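 Lung cancer cell lines were pin-tool dosed in 1536-well plates on the day after seeding, with either a lone drug or a fixed anchor-drug dose plus five library-drug doses (not always all listed) in √10 steps. Nuclei were counted on 4× images after 5 days. Relative viability is the ratio of treated-well to vehicle-well nuclei counts, with each value a median of duplicate plates.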
# IPA-3 + Decitabine = compound: C1=CC=C2C(=C1)C=CC(=C2SSC3=C(C=CC4=CC=CC=C43)O)O [IPA-3] + Nc1ncn([C@H]2C[C@H](O)[C@@H](CO)O2)c(=O)n1 [Decitabine] (partner 2 µM)
# Method in brief: as §1
# Doramapimod + Luminespib = compound: Cc1ccc(-n2nc(C(C)(C)C)cc2NC(=O)Nc2ccc(OCCN3CCOCC3)c3ccccc23)cc1 [Doramapimod] + CCNC(=O)c1noc(-c2cc(C(C)C)c(O)cc2O)c1-c1ccc(CN2CCOCC2)cc1 [Luminespib] (partner 0.01 µM)
# Method in brief: as §1
# RAF265 + Luminespib = compound: Cn1c(Nc2ccc(C(F)(F)F)cc2)nc2cc(Oc3ccnc(-c4ncc(C(F)(F)F)[nH]4)c3)ccc21 [RAF265] + CCNC(=O)c1noc(-c2cc(C(C)C)c(O)cc2O)c1-c1ccc(CN2CCOCC2)cc1 [Luminespib] (partner 0.01 µM)
# Method in brief: as §1
cell line,measurement,setting,value
UMC-11,relative viability,IPA-3 + Crizotinib; first compound 0.2 µM,0.605
same,relative viability,IPA-3 + Crizotinib; first compound 0.6325 µM,0.524
same,relative viability,IPA-3 + Crizotinib; first compound 2 µM,0.798
same,relative viability,IPA-3 + Crizotinib; first compound 6.325 µM,0.579
same,relative viability,IPA-3 + Crizotinib; first compound 20 µM,0.673
same,relative viability,IPA-3 + Decitabine; first compound 0.2 µM,0.682
same,relative viability,IPA-3 + Decitabine; first compound 0.6325 µM,0.759
same,relative viability,IPA-3 + Decitabine; first compound 2 µM,0.568
same,relative viability,IPA-3 + Decitabine; first compound 6.325 µM,0.362
same,relative viability,IPA-3 + Decitabine; first compound 20 µM,0.594
same,relative viability,Doramapimod + Luminespib; first compound 0.02 µM,0.911
same,relative viability,Doramapimod + Luminespib; first compound 0.06325 µM,0.869
same,relative viability,Doramapimod + Luminespib; first compound 0.2 µM,0.904
same,relative viability,Doramapimod + Luminespib; first compound 0.6325 µM,0.965
same,relative viability,Doramapimod + Luminespib; first compound 2 µM,0.913
same,relative viability,RAF265 + Luminespib; first compound 0.01 µM,0.984
same,relative viability,RAF265 + Luminespib; first compound 0.03162 µM,1.01
same,relative viability,RAF265 + Luminespib; first compound 0.1 µM,1.06
same,relative viability,RAF265 + Luminespib; first compound 0.3162 µM,1.01
same,relative viability,RAF265 + Luminespib; first compound 1 µM,0.936
